According to patent publication EP4711367A1, “PYRAZOLOPYRAZINE COMPOUND AND METHOD FOR PREPARING CRYSTAL FORM THEREOF” (CMS Research & Development Pte. Ltd., priority 2023, dated 2024):

What was measured:
JAK3(h) = biological target: T1, JAK3(h) (Homo sapiens, UniProt P52333); test: In vitro activity test of JAK3 kinase ([γ-33P]-ATP filter assay, Eurofins); format: biochemical
T1 construct: purchased Eurofins (UK)
T1 sequence (P52333 1-1124): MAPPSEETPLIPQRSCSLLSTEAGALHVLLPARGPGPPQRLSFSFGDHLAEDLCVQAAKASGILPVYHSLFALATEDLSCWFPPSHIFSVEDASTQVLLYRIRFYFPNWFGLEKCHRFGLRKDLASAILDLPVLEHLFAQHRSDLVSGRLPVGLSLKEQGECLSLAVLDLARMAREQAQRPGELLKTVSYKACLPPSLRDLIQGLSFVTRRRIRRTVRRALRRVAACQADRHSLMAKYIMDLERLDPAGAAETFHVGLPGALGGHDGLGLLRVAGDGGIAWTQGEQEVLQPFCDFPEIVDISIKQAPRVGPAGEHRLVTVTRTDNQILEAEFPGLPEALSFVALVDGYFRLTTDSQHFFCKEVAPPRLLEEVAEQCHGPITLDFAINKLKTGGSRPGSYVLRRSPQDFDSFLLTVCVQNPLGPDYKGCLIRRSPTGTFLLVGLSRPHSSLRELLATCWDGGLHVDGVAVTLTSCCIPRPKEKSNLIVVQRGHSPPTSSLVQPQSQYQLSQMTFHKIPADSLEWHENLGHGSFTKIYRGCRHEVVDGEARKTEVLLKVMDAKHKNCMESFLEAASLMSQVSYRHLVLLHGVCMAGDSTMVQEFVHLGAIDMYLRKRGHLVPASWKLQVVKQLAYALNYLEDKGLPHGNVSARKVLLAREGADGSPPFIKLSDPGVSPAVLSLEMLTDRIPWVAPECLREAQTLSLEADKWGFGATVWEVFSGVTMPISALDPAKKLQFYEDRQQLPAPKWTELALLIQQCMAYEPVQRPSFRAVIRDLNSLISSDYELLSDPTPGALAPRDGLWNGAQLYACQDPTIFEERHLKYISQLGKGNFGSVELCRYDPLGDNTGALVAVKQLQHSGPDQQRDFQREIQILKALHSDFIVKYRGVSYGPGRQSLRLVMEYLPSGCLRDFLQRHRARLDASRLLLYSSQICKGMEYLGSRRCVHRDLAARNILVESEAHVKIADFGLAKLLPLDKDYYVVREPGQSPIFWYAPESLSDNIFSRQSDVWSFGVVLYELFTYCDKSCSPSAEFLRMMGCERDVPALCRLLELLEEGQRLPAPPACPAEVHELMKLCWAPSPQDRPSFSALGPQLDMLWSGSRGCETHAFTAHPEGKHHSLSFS
Experimental: Recombinant human JAK1, JAK2, JAK3, and Tyk2 proteases, along with major instruments and reagents, were provided by Eurofins in the UK. JAK2, JAK3, and TYK2 were diluted with: 20 mM 3-(N-morpholino)propanesulfonic acid (MOPS), 1 mM EDTA, 0.01% Brij-35.5% glycerol, 0.1% β-mercaptoethanol, 1 mg/mL BSA; JAK1 was diluted with: 20 mM TRIS, 0.2 mM EDTA, 0.1% β-mercaptoethanol, 0.01% Brij-35.5% glycerol. The compound of formula (I) was prepared as a 100% DMSO solution and diluted to 50 times the final assay concentration. The test compound was subjected to a 3-fold serial dilution, with final concentrations ranging from 10 µM to 0.001 µM across 9 concentrations, and the DMSO content in the detection reaction was 2%. The working stock solution of this compound was added as the first component of the reaction to the assay wells, followed by the addition of the remaining components according to the protocol detailed below. JAK3(h) was incubated with 8 mM MOPS pH 7.0, 0.2 mM EDTA, 500 µM GGEEEEYFELVKKKK, 10 mM magnesium acetate, and [γ-^33P]-ATP (activity and concentration were adjusted as needed). The reaction was initiated by adding the Mg/ATP mixture and incubated at room temperature for 40 minutes, then terminated by adding 0.5% phosphoric acid. […] The IC50 results were analyzed using XLFIT5 (205 formula) from IDBS, as detailed in Table 12. […]

[1] = Pharmacokinetic (PK) test in mice; format: in vivo, male mice (balb/c)
Experimental: The clarified solutions obtained by dissolving the test compound were administered to male mice (balb/c) via tail vein injection and oral gavage, respectively. After administration of the test compound, blood was collected from the mandibular vein at 0.083, 0.25, 0.5, 1, 2, 4, 8, and 24 hours for the intravenous injection group (1 mg/kg) and at 0.25, 0.5, 1, 2, 4, 6, 8, and 24 hours for the oral gavage group (3 mg/kg), followed by centrifugation to obtain plasma. Plasma concentrations were determined by the LC-MS/MS method, and relevant pharmacokinetic parameters were calculated using WinNonlin™ Version 6.3 pharmacokinetic software with non-compartmental model linear-log trapezoidal method. PK test results of the compound of formula (I) in mice

With `Cn1cc(-c2cn3nccc3c(-c3cnn([C@]4(CC#N)CC5(C[C@H](C#N)C5)C4)c3)n2)cn1` (stereo partly drawn) [Compound of formula (I)] the IC50 (JAK3(h)) was 189 nM, the “exposure (in words)” value [1] was “high exposure” and the “oral bioavailability (in words)” value [1] was “good oral bioavailability”.
